Measured values taken from paper PMC12030678, “Investigations of In Vitro Anti-Acetylcholinesterase, Anti-Diabetic, Anti-Inflammatory, and Anti-Cancer Efficacy of Garden Cress (Lepidium sativum Linn.) Seed Extracts, as Well as In Vivo Biochemical and Hematological Assays” (Pharmaceutics, 2025).
In brackets after ≈: the same amount, converted by molar mass.

Key:
α-amylase enzyme = molecular target: T1, α-amylase enzyme (Sus scrofa, UniProt P00690); test: α-Amylase inhibition (DNSA method); format: biochemical; settings: at 100 µg/mL
T1 sequence (P00690 16-511): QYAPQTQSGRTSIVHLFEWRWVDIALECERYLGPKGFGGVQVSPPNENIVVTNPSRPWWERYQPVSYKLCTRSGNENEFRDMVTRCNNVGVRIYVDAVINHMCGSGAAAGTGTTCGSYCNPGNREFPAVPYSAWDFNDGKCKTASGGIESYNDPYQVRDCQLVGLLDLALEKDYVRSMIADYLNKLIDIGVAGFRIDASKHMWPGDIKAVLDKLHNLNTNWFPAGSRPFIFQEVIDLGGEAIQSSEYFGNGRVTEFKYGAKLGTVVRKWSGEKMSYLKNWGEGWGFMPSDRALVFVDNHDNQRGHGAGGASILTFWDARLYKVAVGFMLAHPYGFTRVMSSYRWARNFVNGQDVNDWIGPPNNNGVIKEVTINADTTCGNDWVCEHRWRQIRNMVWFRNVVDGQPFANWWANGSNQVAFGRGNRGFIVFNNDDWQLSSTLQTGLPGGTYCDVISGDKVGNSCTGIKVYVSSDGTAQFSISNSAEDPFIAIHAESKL
Experimental: Anti-Alzheimer's activity
In this study, we assessed the inhibition percentage of the acetylcholinesterase (AChE)
This assay involved calculating the inhibition percentage (%) of α-amylase enzyme using
The mixture was then left at
temperature and diluted with 5 mL of distilled water.

α-glucosidase enzyme = α-glucosidase enzyme (Saccharomyces cerevisiae, UniProt P53341); test: α-Glucosidase inhibition (pNPG); format: biochemical; settings: at 100 µg/mL
Sequence of α-glucosidase enzyme (P53341 whole entry): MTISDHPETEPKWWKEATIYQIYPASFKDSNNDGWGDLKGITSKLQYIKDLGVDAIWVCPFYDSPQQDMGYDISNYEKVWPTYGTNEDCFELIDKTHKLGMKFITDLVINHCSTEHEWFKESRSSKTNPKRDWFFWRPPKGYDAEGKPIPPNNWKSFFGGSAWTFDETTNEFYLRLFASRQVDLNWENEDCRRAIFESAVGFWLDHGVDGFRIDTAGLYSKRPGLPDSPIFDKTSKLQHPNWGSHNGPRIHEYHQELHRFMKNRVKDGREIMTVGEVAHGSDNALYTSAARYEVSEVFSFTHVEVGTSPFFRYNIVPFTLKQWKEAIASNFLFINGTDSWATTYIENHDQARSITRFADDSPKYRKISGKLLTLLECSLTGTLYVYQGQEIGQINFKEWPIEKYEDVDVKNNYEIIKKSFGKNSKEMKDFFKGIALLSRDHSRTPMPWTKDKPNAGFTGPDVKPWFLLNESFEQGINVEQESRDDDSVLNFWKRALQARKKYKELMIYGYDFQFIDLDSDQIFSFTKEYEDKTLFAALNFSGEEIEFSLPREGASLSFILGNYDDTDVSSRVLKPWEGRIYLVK

[1] = Iron reducing power (IRP); settings: in vitro iron reducing power
Experimental: The iron reducing power was determined as µg/mL using the method proposed by Oyaizu
In brief, 1ml of the tested sample (at each concentration) was combined with
1mL of 200mM sodium phosphate buffer (pH 6.6) and 1mL of 1% potassium ferricyanide.
The mixture was then incubated at 50°C for 20 minutes, followed by the addition of 1mL of trichloroacetic acid (10%). After centrifugation at 2000rpm for 10 minutes, the upper layer solution (2.5 mL) was mixed with 2.5 mL of double deionized water and 1mL of fresh ferric chloride (0.1%). The absorbance was measured at 700nm against a blank prepared without the sample. Ascorbic acid was used at the same concentrations as a standard. A high absorbance at 700nm indicates a higher reducing power in the reaction mixture.

[2] = DPPH radical scavenging activity
Experimental: (§1) Antioxidant, scavenging, anti-Alzheimer, anti-diabetic, anti-arthritic, anti-inflammatory, cytotoxic, and enzymatic activities were assessed according to the proposed methods detailed in the Supplementary File. All biological activities were assessed in triplicate for all studied extracts. […]
The 1,1-Diphenyl-2-picryl-hydrazyl (DPPH) radical scavenging activities were evaluated using the method described by Rahman et al.. An antioxidant substance capable of donating a hydrogen atom to a solution containing DPPH- can reduce the stable free radical, causing the solution to change color from violet to pale yellow. The remaining DPPH- radical was quantified by measuring the intensity of a light-purple colored DPPH methanol solution in the visible range at 518 nm using a spectroscopic method. Two milliliters of a DPPH solution (100 µM) in ethanol were mixed with 2 mL of the sample (at each concentration).
The reaction mixture for each concentration was thoroughly vortexed and then incubated in the dark at room temperature for 30 minutes. The absorbance was then measured spectrophotometrically at 518 nm against a blank (ethanol). For the control, 2 mL of ethanol was added instead of the sample and run simultaneously with the test. Ascorbic acid was used at the same concentrations as a positive control. Percent inhibition of the DPPH free radical was calculated. […]

[3] = Total antioxidant capacity (TAC), phosphomolybdenum method; settings: in vitro total antioxidant capacity
Experimental: The total antioxidant capacity (TAC) was determined by analyzing the green phosphate/Mo5+
[38]. Samples (at each concentration) were mixed with a reagent solution containing 0.3 N
sulfuric acid, 28 mM sodium phosphate, and 4 mM ammonium molybdate. Methanol (80%)
was used in place of the sample for the blank. The tubes were sealed and incubated in a
boiling water bath for 90 minutes. After cooling to room temperature, the absorbance was
standard. The antioxidant capacity was expressed as mg gallic acid equivalent per gram

[4] = Nitric oxide (NO) radical scavenging activity
Experimental: Antioxidant, scavenging, anti-Alzheimer, anti-diabetic, anti-arthritic, anti-inflammatory, cytotoxic, and enzymatic activities were assessed according to the proposed methods detailed in the Supplementary File. All biological activities were assessed in triplicate for all studied extracts.

[5] = ABTS radical scavenging activity
Experimental: as §1
An antioxidant substance capable of donating a hydrogen atom to a solution containing DPPH- can reduce the stable free radical, causing the solution to change color from violet to pale yellow. […]
Two milliliters of a DPPH […]
solution (100 µM) in ethanol were mixed with 2 mL of the sample (at each concentration). […]
For the control, 2 mL of ethanol was added instead of the sample and run simultaneously with the test. Ascorbic acid was used at the same concentrations as a positive control. […]
(7 mM) and potassium persulfate solution (2.4 mM). The working solution was prepared by mixing the two stock solutions in equal quantities and allowing them to react at room temperature in a dark place for 14 hours. The solution was then diluted by mixing 1 mL of ABTS solution with 60 mL of methanol to obtain an absorbance of 0.706 ± 0.01 units at 734 nm using a spectrophotometer. […] The tested samples (at each concentration) were allowed to react with 1 mL of the ABTS solution, and the absorbance was taken at 734 nm after 7 minutes using a spectrophotometer. […]

Caco-2 cells = test: Cytotoxic activity, MTT assay, Caco-2; format: cell-based; settings: Homo sapiens, 48 h, read-out: IC50 (μg/mL) Caco-2
Experimental: as §1
Cytotoxic activity and Enzymatic Assay
It will be assayed against human hepatocellular carcinoma (HepG-2), colon cancer (Caco-2), and lung cancer (A549) cells using 3-(4,5-dimethythiazol-2-yl)-2,5-diphenyl tetrazolium bromide (MTT) assay by determining the optical density (OD) at 570 nm according to the […]
(§2) The cells were dispensed in a 96-well sterile […]
different concentrations of 10 μL of each compound or doxorubicin (positive control, in DMSO) for 48 h in a serum free medium prior to the MTT assay. Subsequently, the media were carefully removed, and 40 μL of MTT (2.5 mg/mL) was added to each well and then incubated for an additional 4 h. Purple formazan dye crystals were solubilized by the addition of 200 μL of DMSO. The absorbance was measured at 570 nm using a SpectraMax Paradigm Multi-Mode microplate reader. The relative cell viability was expressed as the mean percentage of viable cells relative to the untreated control cells. All experiments were conducted in triplicate. Percent of the cell-growth inhibition (%) and the IC50 was calculated using IC50 calculation software. […]

caspase-3 = format: cell-based, human
Experimental: as §1
(§3) Cytotoxic activity and Enzymatic Assay […]
as §2
(§4) different concentrations of 10 μL of each compound or doxorubicin (positive control, in DMSO) for 48 h in a serum free medium prior to the MTT assay. […]
Activities of caspase-3 were measured by enzyme-linked immunosorbent assay (ELISA) using the Invitrogen caspase-3 (Active) (human) ELISA kit (96 tests) from Invitrogen Corporation, following the manufacturer's instructions. […]

Bcl-2 = format: cell-based, human
Experimental: as §1, §3, §2, §4
Corporation, following the manufacturer's instructions. Activities of Bcl-2 were measured using the Invitrogen Zymed Bcl-2 ELISA Kit (96 tests) from Invitrogen Corporation, following the manufacturer's instructions.

[6] = molecular target: T2, 5-LOX enzyme (human recombinant) (Homo sapiens, UniProt P09917); test: 5-Lipoxygenase inhibition assay; format: biochemical; settings: inhibition at 100 µg/mL
T2 construct: purchased Sigma-Aldrich 437996
T2 sequence (P09917 1-674): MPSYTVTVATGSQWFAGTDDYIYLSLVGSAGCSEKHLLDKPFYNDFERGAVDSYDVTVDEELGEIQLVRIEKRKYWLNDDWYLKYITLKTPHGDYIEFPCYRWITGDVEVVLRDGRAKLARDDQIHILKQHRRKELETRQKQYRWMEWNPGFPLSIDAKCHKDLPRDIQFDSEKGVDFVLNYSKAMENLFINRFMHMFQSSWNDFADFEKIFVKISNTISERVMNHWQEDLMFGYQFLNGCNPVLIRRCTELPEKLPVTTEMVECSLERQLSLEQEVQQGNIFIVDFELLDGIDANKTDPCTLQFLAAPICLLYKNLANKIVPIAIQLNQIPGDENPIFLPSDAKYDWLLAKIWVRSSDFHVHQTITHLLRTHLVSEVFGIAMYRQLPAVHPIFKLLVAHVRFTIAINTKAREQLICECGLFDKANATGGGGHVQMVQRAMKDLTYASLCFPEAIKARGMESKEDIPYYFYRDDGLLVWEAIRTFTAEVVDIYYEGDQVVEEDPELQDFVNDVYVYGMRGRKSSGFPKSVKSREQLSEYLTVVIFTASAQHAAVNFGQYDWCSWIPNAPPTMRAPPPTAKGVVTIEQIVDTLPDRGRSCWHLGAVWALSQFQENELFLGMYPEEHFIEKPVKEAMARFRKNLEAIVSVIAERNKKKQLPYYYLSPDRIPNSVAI
Experimental: different concentrations of 10 μL of each compound or doxorubicin (positive control, in DMSO) for 48 h in a serum free medium prior to the MTT assay. Subsequently, the media were carefully removed, and 40 μL of MTT (2.5 mg/mL) was added to each well and then incubated for an additional 4 h. […] The absorbance was measured at 570 nm using a SpectraMax Paradigm Multi-Mode microplate reader. The relative cell viability was expressed as the mean percentage of viable cells relative to the untreated control cells. […] Percent of the cell-growth inhibition (%) and the IC50 was calculated using IC50 calculation software.
Activities of caspase-3 were measured by enzyme-linked immunosorbent assay (ELISA) using the Invitrogen caspase-3 (Active) (human) ELISA kit (96 tests) from Invitrogen Corporation, following the manufacturer's instructions. Activities of Bcl-2 were measured using the Invitrogen Zymed Bcl-2 ELISA Kit (96 tests) from Invitrogen Corporation, following the manufacturer's instructions [52-54].

Structure (SMILES): C[C@H]1O[C@H](O[C@H]2[C@H](O)[C@@H](O)[C@@H](O[C@H]3[C@H](O)[C@@H](O)C(O)O[C@@H]3CO)O[C@@H]2CO)[C@H](O)[C@@H](O)[C@@H]1N[C@H]1C=C(CO)[C@@H](O)[C@H](O)[C@H]1O (stereo partly drawn) [Acarbose]
- α-Amylase Inhibition (%) (α-amylase enzyme): 66.90 ± 0.10%
- α-Glucosidase Inhibition (%) (α-glucosidase enzyme): 56.65 ± 0.10%

Structure (SMILES): O=C1O[C@H]([C@@H](O)CO)C(O)=C1O [Ascorbic Acid]
- IRP [1]: 76.75 ± 0.13 µg/mL
- IC50 (µg/mL) DPPH [2]: 4.29 ± 0.03 µg/mL (≈ 24.4 µM)
- Inhibition (%) DPPH ([2]; at 100 µg/mL): 66.50 ± 0.11%
- TAC (mg Gallic Acid/g) [3]: 84.50 ± 0.13 mg Gallic Acid/g
- IC50 (µg/mL) NO [4]: 5.51 ± 0.02 µg/mL (≈ 31.3 µM)
- Inhibition (%) NO ([4]; at 100 µg/mL): 60.75 ± 0.11%
- IC50 (µg/mL) ABTS [5]: 3.80 ± 0.04 µg/mL (≈ 21.6 µM)
- Inhibition (%) ABTS ([5]; at 100 µg/mL): 70.25 ± 0.11%

Structure (SMILES): COc1cccc2c1C(=O)c1c(O)c3c(c(O)c1C2=O)C[C@@](O)(C(=O)CO)C[C@@H]3O[C@H]1C[C@H](N)[C@H](O)[C@H](C)O1 [Doxorubicin]
- IC50 (Caco-2 cells): 33.3 µg/mL (≈ 61.2 µM)
- Caspase-3 (pg/mL) A549 (caspase-3; treated A549 cells, DMSO control 88.67 ± 0.12): 341.39 ± 0.46 pg/mL
- Caspase-3 (pg/mL) Caco-2 (caspase-3; treated Caco-2 cells, DMSO control 94.81 ± 0.14): 365.02 ± 0.55 pg/mL
- Caspase-3 (pg/mL) HepG-2 (caspase-3; treated HepG-2 cells, DMSO control 108.79 ± 0.85): 418.84 ± 3.27 pg/mL
- Bcl-2 (ng/mL) A549 (Bcl-2; treated A549 cells, DMSO control 12.58 ± 0.05): 3.27 ± 0.01 ng/mL
- Bcl-2 (ng/mL) Caco-2 (Bcl-2; treated Caco-2 cells, DMSO control 5.74 ± 0.08): 1.49 ± 0.02 ng/mL
- Bcl-2 (ng/mL) HepG-2 (Bcl-2; treated HepG-2 cells, DMSO control 11.15 ± 0.15): 2.90 ± 0.04 ng/mL

Structure (SMILES): CC(c1cc2ccccc2s1)N(O)C(N)=O (stereo not drawn) [Zileuton]
- 5-LOX (%) [6]: 55.71 ± 0.11 (Zileuton) %
